# Measured values taken from patent US20140206682A1, “COMPOUNDS AND COMPOSITIONS AS PDGFR KINASE INHIBITORS” (NOVARTIS PHARMACEUTICALS UK LIMITED, priority 2011, published 2014).
# pIC50: −log10 of the molar value.
# Tested on: PDGFR
# Test: Rat A10 cell proliferation assay
# Assay type: cell-based
# Conditions: Rat A10 cells, recombinant rat PDGF-BB, CellTiter-Glo after 68 hours
# Experimental: Compounds of Formula (I) provided herein were assayed to measure their capacity to inhibit c-kit and PDGFR kinases using the appropriate assay described below: c-Kit inhibition was evaluated using the Mo7e cell proliferation assay, and PDGFR inhibition was evaluated using the Rat A10 cell proliferation assay and the Human TG/HA-VSMC cell proliferation assay.
# Rat A10 cells (ATCC) were resuspended in DMEM supplemented with 1% FBS and 10 ng/mL recombinant rat PDGF-BB at 20,000 cells/mL. The cells were aliquoted into 384 well plates at 50 μL/well and incubated for 4 hours at 37° C. 0.5 μL of test compound 3-fold serially diluted in DMSO was added to each well. The plates were returned to the incubator for a further 68 hours. 25 μL of CellTiter-Glo (Promega) was added to each well and the plates were incubated on the bench for 15 minutes. Luminescence was then read using a CLIPR CCD camera (Molecular Devices).
Structure (SMILES),pIC50 (Table 1),pIC50 (Table 2)
"O=C(N[C@H]1CCSC[C@H]1O)c1ccc(F)c(NC(=O)c2cnc3ccccn23)c1 [F125, N-(2-fluoro-5-{[(3S,4S)-3-hydroxythian-4-yl]carbamoyl}phenyl)imidazo[1,2-a]pyridine-3-carboxamide]",7.01,
"O=C(N[C@H]1c2ccccc2C[C@H]1O)c1ccc(F)c(NC(=O)c2cnc3cc(F)ccn23)c1 [F60, 7-fluoro-N-(2-fluoro-5-{[(1S,2R)-2-hydroxy-2,3-dihydro-1H-inden-1-yl]carbamoyl}phenyl)imidazo[1,2-a]pyridine-3-carboxamide]",,6.22
"Cn1nccc1-c1ccn2c(C(=O)Nc3cc(C(=O)NC4Cc5ccccc5C4O)ccc3F)cnc2c1 (stereo not shown) [F14, N-{2-fluoro-5-[(1-hydroxy-2,3-dihydro-1H-inden-2-yl)carbamoyl]phenyl}-7-(1-methyl-1H-pyrazol-5-yl)imidazo[1,2-a]pyridine-3-carboxamide]",7.49,
"Cc1ccc(C(=O)N[C@@H]2c3ccccc3C[C@@H]2O)cc1NC(=O)c1cnc2ccccn12 [F20, N-(5-{[(1R,2S)-2-hydroxy-2,3-dihydro-1H-inden-1-yl]carbamoyl}-2-methylphenyl)imidazo[1,2-a]pyridine-3-carboxamide]",7.54,
"O=C(N[C@@H]1CCCC[C@@H]1O)c1ccc(F)c(NC(=O)c2cnc3ccccn23)c1 [F82, N-(2-fluoro-5-{[(1R,2S)-2-hydroxycyclohexyl]carbamoyl}phenyl)imidazo[1,2-a]pyridine-3-carboxamide]",,6.52
"C[C@@]1(O)CCCC[C@@H]1NC(=O)c1ccc(F)c(NC(=O)c2cnc3ccccn23)c1 [F124, N-(2-fluoro-5-{[(1S,2R)-2-hydroxy-2-methylcyclohexyl]carbamoyl}phenyl)imidazo[1,2-a]pyridine-3-carboxamide]",6.73,
"O=C(N[C@H]1CC[C@H](O)CC1)c1cccc(NC(=O)c2cnc3ccccn23)c1 [F76, N-{3-[(4-hydroxycyclohexyl)carbamoyl]phenyl}imidazo[1,2-a]pyridine-3-carboxamide]",,5.03
"O=C(NC1Cc2ccccc2C1O)c1ccc(F)c(NC(=O)c2cnc3cc(Br)ccn23)c1 (stereo not shown) [F10, 7-bromo-N-{2-fluoro-5-[(1-hydroxy-2,3-dihydro-1H-inden-2-yl)carbamoyl]phenyl}imidazo[1,2-a]pyridine-3-carboxamide]",6.89,
"O=C(NCC(O)c1ccccc1Cl)c1ccc(F)c(NC(=O)c2cnc3ccccn23)c1 (stereo not shown) [F120, N-(5-{[2-(2-chlorophenyl)-2-hydroxyethyl]carbamoyl}-2-fluorophenyl)imidazo[1,2-a]pyridine-3-carboxamide]",7.44,
"O=C(N[C@@H]1c2ccccc2C[C@@H]1O)c1ccc(F)c(NC(=O)c2cnc3ccccn23)c1 [F5, N-(2-fluoro-5-{[(1R,2S)-2-hydroxy-2,3-dihydro-1H-inden-1-yl]carbamoyl}phenyl)imidazo[1,2-a]pyridine-3-carboxamide]",7.46,
"Cc1ccc2ncc(C(=O)Nc3cc(C(=O)N[C@@H]4c5ccccc5C[C@@H]4O)c(F)cc3F)n2c1 [F87, N-(2,4-difluoro-5-{[(1R,2S)-2-hydroxy-2,3-dihydro-1H-inden-1-yl]carbamoyl}phenyl)-6-methylimidazo[1,2-a]pyridine-3-carboxamide]",,5.54
"O=C(N[C@H]1CCCC[C@H]1O)c1ccc(F)c(NC(=O)c2cnc3ccccn23)c1 [F50, N-(2-fluoro-5-{[(1S,2R)-2-hydroxycyclohexyl]carbamoyl}phenyl)imidazo[1,2-a]pyridine-3-carboxamide]",,6.43
"O=C(NC(CO)c1ccccc1)c1cccc(NC(=O)c2cnc3ccccn23)c1 (stereo in doubt) [F44, N-(3-{[(1S)-2-hydroxy-1-phenylethyl]carbamoyl}phenyl)imidazo[1,2-a]pyridine-3-carboxamide]",,6.51
"Cc1ccc(C(=O)NCc2ccccc2N2CCC(O)C2)cc1NC(=O)c1cnc2ccccn12 (stereo not shown) [F31, N-[5-({[2-(3-hydroxypyrrolidin-1-yl)phenyl]methyl}carbamoyl)-2-methylphenyl]imidazo[1,2-a]pyridine-3-carboxamide]",7.38,
"C[C@@H](CO)NC(=O)c1cccc(NC(=O)c2cnc3ccccn23)c1 [F78, N-(3-{[(2S)-1-hydroxypropan-2-yl]carbamoyl}phenyl)imidazo[1,2-a]pyridine-3-carboxamide]",,< 5.00
"O=C(NC[C@@H]1CCCC[C@H]1O)c1ccc(F)c(NC(=O)c2cnc3ccccn23)c1 [F116, N-[2-fluoro-5-({[(1S,2R)-2-hydroxycyclohexyl]methyl}carbamoyl)phenyl]imidazo[1,2-a]pyridine-3-carboxamide]",7.19,
"O=C(NC12C[C@@H]3C[C@@H](CC(O)(C3)C1)C2)c1ccc(F)c(NC(=O)c2cnc3ccccn23)c1 [F52, N-(2-fluoro-5-{[(5R,7S)-3-hydroxyadamantan-1-yl]carbamoyl}phenyl)imidazo[1,2-a]pyridine-3-carboxamide]",,6.37
"O=C(N[C@H]1CC[C@@H](O)CC1)c1ccc(F)c(NC(=O)c2cnc3ccccn23)c1 [F104, N-{2-fluoro-5-[(4-hydroxycyclohexyl)carbamoyl]phenyl}imidazo[1,2-a]pyridine-3-carboxamide]",,< 5.00
"COc1ccc2ncc(C(=O)Nc3cc(C(=O)N[C@@H]4c5ccccc5C[C@@H]4O)ccc3F)n2c1 [F19, N-(2-fluoro-5-{[(1R,2S)-2-hydroxy-2,3-dihydro-1H-inden-1-yl]carbamoyl}phenyl)-6-methoxyimidazo[1,2-a]pyridine-3-carboxamide]",7.09,
"O=C(NC1(CO)CCCC1)c1cccc(NC(=O)c2cnc3ccccn23)c1 [F77, N-(3-{[1-(hydroxymethyl)cyclopentyl]carbamoyl}phenyl)imidazo[1,2-a]pyridine-3-carboxamide]",,5.02
"O=C(N[C@H]1c2ccccc2C[C@H]1O)c1ccc(F)c(NC(=O)c2cnc3ccccn23)c1 [F6, N-(2-fluoro-5-{[(1S,2R)-2-hydroxy-2,3-dihydro-1H-inden-1-yl]carbamoyl}phenyl)imidazo[1,2-a]pyridine-3-carboxamide]",7.07,
"Cn1nccc1-c1ccn2c(C(=O)Nc3cc(C(=O)N[C@@H]4Cc5ccccc5[C@@H]4O)ccc3F)cnc2c1 [F15, N-(2-fluoro-5-{[(1S,2R)-1-hydroxy-2,3-dihydro-1H-inden-2-yl]carbamoyl}phenyl)-7-(1-methyl-1H-pyrazol-5-yl)imidazo[1,2-a]pyridine-3-carboxamide]",7.36,
"O=C(NC(CO)c1ccccc1)c1ccc(F)c(NC(=O)c2cnc3ccccn23)c1 (stereo not shown) [F4, N-{2-fluoro-5-[(2-hydroxy-1-phenylethyl)carbamoyl]phenyl}imidazo[1,2-a]pyridine-3-carboxamide]",7.05,
"CC(C)(O)[C@@H]1CCCC[C@@H]1NC(=O)c1ccc(F)c(NC(=O)c2cnc3ccccn23)c1 [F106, N-(2-fluoro-5-{[(1S,2R)-2-(2-hydroxypropan-2-yl)cyclohexyl]carbamoyl}phenyl)imidazo[1,2-a]pyridine-3-carboxamide]",,6.09
"C[C@@]1(O)CCCC[C@H]1NC(=O)c1ccc(F)c(NC(=O)c2cnc3ccccn23)c1 [F103, N-(2-fluoro-5-{[(1R,2R)-2-hydroxy-2-methylcyclohexyl]carbamoyl}phenyl)imidazo[1,2-a]pyridine-3-carboxamide]",,< 5.00
